Columns and labels:
[1] = system: Mus musculus; assay: Neurobehavioral effect on Swiss Webster mouse assessed as hot plate latency time at 20 mg/kg, ip (reference value: 8.32 +/- 2.20 %) by mouse tetrad assay; assay type: functional
[2] = system: Mus musculus; assay: Neurobehavioral effect on Swiss Webster mouse assessed as catalepsy latency time at 20 mg/kg, ip (reference value: 2.1 +/- 0.60 secs) by mouse tetrad assay; assay type: functional
[3] = system: Mus musculus; assay: Neurobehavioral effect on Swiss Webster mouse assessed as tail-flick latency time at 20 mg/kg, ip (reference value: 0.84 +/- 3.58 %) by mouse tetrad assay; assay type: functional
[4] = molecular target: Cannabinoid receptor 1 (Homo sapiens, UniProt P21554); assay: Displacement of [3H]CP55940 from full length human recombinant CB1 receptor expressed in HEK293 cells after 90 mins by scintillation counting analysis; assay type: cell-based
[5] = molecular target: Cannabinoid receptor 2 (Homo sapiens, UniProt P34972); assay: Displacement of [3H]CP55940 from full length human recombinant CB2 receptor expressed in HEK293 cells after 90 mins by scintillation counting analysis; assay type: cell-based
[6] = system: Mus musculus; assay: Neurobehavioral effect on Swiss Webster mouse assessed as decrease in rectal temperature at 20 mg/kg, ip (reference value: 0.58 +/- 0.26 degC) by mouse tetrad assay; assay type: functional
[7] = system: Mus musculus; assay: Neurobehavioral effect on Swiss Webster mouse assessed as locomotor activity measured as total number of interruptions at 20 mg/kg, ip monitored for 30 mins (reference value: 2091 +/- 209.3) by mouse tetrad assay; assay type: functional
[8] = system: Mus musculus; assay: Neurobehavioral effect on Swiss Webster mouse assessed as catalepsy latency time at 10 mg/kg, ip (reference value: 2.1 +/- 0.60 secs) by mouse tetrad assay; assay type: functional
[9] = system: Mus musculus; assay: Neurobehavioral effect on Swiss Webster mouse assessed as tail-flick latency time at 10 mg/kg, ip (reference value: 0.84 +/- 3.58 %) by mouse tetrad assay; assay type: functional
[10] = system: Mus musculus; assay: Neurobehavioral effect on Swiss Webster mouse assessed as locomotor activity measured as total number of interruptions at 40 mg/kg, ip monitored for 30 mins (reference value: 2091 +/- 209.3) by mouse tetrad assay; assay type: functional
[11] = system: Mus musculus; assay: Neurobehavioral effect on Swiss Webster mouse assessed as decrease in rectal temperature at 40 mg/kg, ip (reference value: 0.58 +/- 0.26 degC) by mouse tetrad assay; assay type: functional
[12] = system: Mus musculus; assay: Neurobehavioral effect on Swiss Webster mouse assessed as catalepsy latency time at 40 mg/kg, ip (reference value: 2.1 +/- 0.60 secs) by mouse tetrad assay; assay type: functional
[13] = system: Mus musculus; assay: Neurobehavioral effect on Swiss Webster mouse assessed as locomotor activity measured as total number of interruptions at 10 mg/kg, ip monitored for 30 mins (reference value: 2091 +/- 209.3) by mouse tetrad assay; assay type: functional
[14] = system: Mus musculus; assay: Neurobehavioral effect on Swiss Webster mouse assessed as hot plate latency time at 10 mg/kg, ip (reference value: 8.32 +/- 2.20 %) by mouse tetrad assay; assay type: functional
[15] = system: Mus musculus; assay: Neurobehavioral effect on Swiss Webster mouse assessed as decrease in rectal temperature at 10 mg/kg, ip (reference value: 0.58 +/- 0.26 degC) by mouse tetrad assay; assay type: functional
[16] = system: Mus musculus; assay: Neurobehavioral effect on Swiss Webster mouse assessed as tail-flick latency time at 40 mg/kg, ip (reference value: 0.84 +/- 3.58 %) by mouse tetrad assay; assay type: functional
[17] = system: Mus musculus; assay: Neurobehavioral effect on Swiss Webster mouse assessed as hot plate latency time at 40 mg/kg, ip (reference value: 8.32 +/- 2.20 %) by mouse tetrad assay; assay type: functional
[18] = system: Mus musculus; assay: Neurobehavioral effect on Swiss Webster mouse assessed as tail-flick latency time at 5 mg/kg, ip (reference value: 0.84 +/- 3.58 %) by mouse tetrad assay; assay type: functional
[19] = system: Mus musculus; assay: Neurobehavioral effect on Swiss Webster mouse assessed as hot plate latency time at 5 mg/kg, ip (reference value: 8.32 +/- 2.20 %) by mouse tetrad assay; assay type: functional
[20] = system: Mus musculus; assay: Neurobehavioral effect on Swiss Webster mouse assessed as catalepsy latency time at 5 mg/kg, ip (reference value: 2.1 +/- 0.60 secs) by mouse tetrad assay; assay type: functional
[21] = system: Mus musculus; assay: Neurobehavioral effect on Swiss Webster mouse assessed as locomotor activity measured as total number of interruptions at 5 mg/kg, ip monitored for 30 mins (reference value: 2091 +/- 209.3) by mouse tetrad assay; assay type: functional
[22] = system: Mus musculus; assay: Neurobehavioral effect on Swiss Webster mouse assessed as decrease in rectal temperature at 5 mg/kg, ip (reference value: 0.58 +/- 0.26 degC) by mouse tetrad assay; assay type: functional

Sequence of Cannabinoid receptor 2 (P34972 whole entry): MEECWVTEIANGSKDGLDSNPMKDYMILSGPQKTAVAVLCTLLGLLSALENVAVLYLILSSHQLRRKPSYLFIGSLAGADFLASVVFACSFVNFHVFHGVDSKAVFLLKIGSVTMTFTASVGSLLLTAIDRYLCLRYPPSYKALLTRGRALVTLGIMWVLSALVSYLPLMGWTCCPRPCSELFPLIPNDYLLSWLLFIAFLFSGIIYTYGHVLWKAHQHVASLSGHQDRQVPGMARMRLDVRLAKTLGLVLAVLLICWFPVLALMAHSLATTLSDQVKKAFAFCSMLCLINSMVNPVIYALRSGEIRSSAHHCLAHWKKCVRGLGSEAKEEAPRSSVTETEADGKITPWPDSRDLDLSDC
Sequence of Cannabinoid receptor 1 (P21554 whole entry): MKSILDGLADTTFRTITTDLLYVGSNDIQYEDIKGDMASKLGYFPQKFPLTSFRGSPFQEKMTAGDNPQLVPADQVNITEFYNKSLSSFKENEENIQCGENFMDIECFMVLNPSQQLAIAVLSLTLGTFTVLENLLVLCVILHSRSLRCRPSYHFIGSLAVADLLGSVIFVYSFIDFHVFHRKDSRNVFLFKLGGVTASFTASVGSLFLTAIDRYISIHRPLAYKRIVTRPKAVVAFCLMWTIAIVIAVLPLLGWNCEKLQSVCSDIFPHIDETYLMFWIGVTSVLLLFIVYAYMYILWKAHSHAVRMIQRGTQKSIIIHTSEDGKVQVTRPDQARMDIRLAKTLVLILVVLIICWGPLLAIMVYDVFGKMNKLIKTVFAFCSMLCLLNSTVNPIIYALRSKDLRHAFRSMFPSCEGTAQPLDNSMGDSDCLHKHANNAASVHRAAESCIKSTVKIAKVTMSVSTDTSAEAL

Q: For `CCCCCc1cc(O)c2c(c1)OC(C)(C)[C@@H]1C[C@H](O)C(C)=C[C@@H]21`, which MPE [1] is on record?
A: 4.95%

Q: And the Time [2]?
A: 1.5 s

Q: And the MPE [3]?
A: 5.01%

Q: And the Ki [4]?
A: 1.91 µM

Q: And the Ki [5]?
A: 3.22 µM

Q: And the T [6]?
A: 0.58 °C

Q: And the Activity [7]?
A: 908.9

Q: `CCCCCc1cc(O)c2c(c1)OC(C)(C)[C@@H]1C[C@@H](O)C(C)=C[C@@H]21` was tested. Which MPE [1] did it give?
A: 2.04%

Q: And the Time [8]?
A: 1.143 s

Q: And the Time [2]?
A: 1.43 s

Q: And the MPE [9]?
A: 0.13%

Q: What about the MPE [3] of the same compound?
A: 1.62%

Q: And the Activity [10]?
A: 777.4

Q: And the T [11]?
A: 0.91 °C

Q: And the Time [12]?
A: 11.43 s

Q: What about the Ki [4] of the same compound?
A: 0.065 µM

Q: And the Activity [13]?
A: 1617

Q: What about the Ki [5] of the same compound?
A: 0.088 µM

Q: And the MPE [14]?
A: 11.83%

Q: What about the T [6] of the same compound?
A: 0.5 °C

Q: What about the T [15] of the same compound?
A: 0.49 °C

Q: What about the Activity [7] of the same compound?
A: 1148

Q: And the MPE [16]?
A: 12.69%

Q: And the MPE [17]?
A: 11.79%

Q: Which MPE [1] does the source give for `CCCCCc1cc(O)c2c(c1)OC(C)(C)[C@@H]1CC=C(C)[C@H](O)[C@@H]21` here?
A: 47.63%

Q: And the MPE [18]?
A: 37.4%

Q: And the Time [8]?
A: 23.9 s

Q: What about the Time [2] of the same compound?
A: 51.1 s

Q: And the MPE [19]?
A: 21.04%

Q: And the MPE [9]?
A: 31.46%

Q: What about the MPE [3] of the same compound?
A: 90.16%

Q: And the Time [20]?
A: 22 s

Q: And the Activity [21]?
A: 318.1

Q: And the Ki [4]?
A: 0.031 µM

Q: What about the Activity [13] of the same compound?
A: 288.3

Q: What about the Ki [5] of the same compound?
A: 0.03 µM

Q: And the MPE [14]?
A: 56.33%

Q: And the T [6]?
A: 5.38 °C

Q: And the T [22]?
A: 2.46 °C

Q: And the T [15]?
A: 3.21 °C

Q: What about the Activity [7] of the same compound?
A: 301.9

Q: With `CCCCCc1cc(O)c2c(c1)OC(C)(C)[C@@H]1CC=C(C)[C@@H](O)[C@@H]21` as the compound, how does the Time [8] read?
A: 1.4 s

Q: What about the MPE [9] of the same compound?
A: 2.2%

Q: And the Activity [10]?
A: 2537

Q: And the T [11]?
A: 5.32 °C

Q: And the Time [12]?
A: 13.7 s

Q: What about the Ki [4] of the same compound?
A: 0.83 µM

Q: And the Activity [13]?
A: 3045

Q: What about the Ki [5] of the same compound?
A: 3.27 µM

Q: What about the MPE [14] of the same compound?
A: 6.819%

Q: What about the T [15] of the same compound?
A: 0.47 °C

Q: And the MPE [16]?
A: 69.95%

Q: And the MPE [17]?
A: 55.65%

Q: Which Ki [4] does the source give for `C=C1CC[C@@H]2[C@H](c3c(O)cc(CCCCC)cc3OC2(C)C)[C@H]1O` here?
A: 0.117 µM

Q: What about the Ki [5] of the same compound?
A: 0.129 µM

Q: Which MPE [1] does the source give for `CCCCCc1cc(O)c2c(c1)OC(C)(C)[C@@H]1CC[C@@]3(C)O[C@H]3[C@@H]21` here?
A: 49.39%

Q: What about the MPE [18] of the same compound?
A: 16.25%

Q: And the Time [8]?
A: 8.8 s

Q: What about the Time [2] of the same compound?
A: 27.5 s

Q: What about the MPE [19] of the same compound?
A: 36.98%

Q: What about the MPE [9] of the same compound?
A: 82.71%

Q: What about the MPE [3] of the same compound?
A: 50.37%

Q: And the Time [20]?
A: 23.8 s

Q: What about the Activity [21] of the same compound?
A: 213.4

Q: What about the Ki [4] of the same compound?
A: 0.224 µM

Q: What about the Activity [13] of the same compound?
A: 291.2

Q: And the Ki [5]?
A: 0.335 µM

Q: What about the MPE [14] of the same compound?
A: 35.89%

Q: And the T [6]?
A: 4.58 °C

Q: And the T [22]?
A: 3.75 °C

Q: And the T [15]?
A: 3.11 °C

Q: What about the Activity [7] of the same compound?
A: 380.3

Q: Which Ki [4] does the source give for `CCCCCc1cc2c(c(O)c1C(=O)O)[C@@H]1C=C(COC(C)=O)CC[C@H]1C(C)(C)O2` here?
A: 0.047 µM

Q: And the Ki [5]?
A: 0.912 µM

Q: Which results are given for `CCCCCc1cc(O)c2c(c1)OC(C)(C)[C@@H]1CC[C@](C)(O)[C@@H](O)[C@@H]21`?
A: MPE [1]: 2.4%; Time [2]: 2.25 s; MPE [3]: 2.98%; Ki [4]: 5.67 µM; Ki [5]: 2.14 µM; T [6]: 0.45 °C; Activity [7]: 1892

Q: `CCCCCc1cc(O)c2c(c1)OC(C)(C)[C@@H]1CC=C(C)C[C@@H]21` [DELTA-8-TETRAHYDROCANNABINOL] was tested. Which MPE [1] did it give?
A: 16.98%

Q: What about the MPE [18] of the same compound?
A: 8.01%

Q: What about the Time [2] of the same compound?
A: 5.3 s

Q: What about the MPE [19] of the same compound?
A: 12.82%

Q: What about the MPE [3] of the same compound?
A: 5.97%

Q: What about the Time [20] of the same compound?
A: 1.6 s

Q: And the Activity [21]?
A: 1480

Q: What about the T [6] of the same compound?
A: 1.96 °C

Q: And the T [22]?
A: 0.12 °C

Q: What about the Activity [7] of the same compound?
A: 377.4

Q: What does the source list for `CCCCCc1cc(O)c2c(c1)OC(C)(C)[C@@H]1CCC(C)=C[C@@H]21` [DRONABINOL]?
A: MPE [1]: 46.85%; Time [8]: 14.4 s; Time [2]: 47.9 s; MPE [9]: 6.52%; MPE [3]: 42.21%; Activity [10]: 194; T [11]: 4.8 °C; Time [12]: 37.7 s; Activity [13]: 190.9; MPE [14]: 29.04%; T [6]: 4.25 °C; T [15]: 2.05 °C; Activity [7]: 276.2; MPE [16]: 51.96%; MPE [17]: 38.18%
